Laboratory results reported in patent publication US10647708B2, “Tetrahydroisoquinoline derived PRMT5-inhibitors” (CTXT PTY LTD, priority 2014, dated 2020).

How the values were obtained:
[1] = biological target: Full-length PRMT5 enzyme co-expressed with MEP50 (Homo sapiens (Human), UniProt O14744); assay: PRMT5 Biochemical Assay; conditions: 200 nM peptide substrate, 1 μM S-Adenosyl methionine, 4 hours at 37° C., Transcreener EPIGEN fluorescence polarisation
Description: Compounds of the invention may be tested for in vitro activity in the following assay: A histone H4 derived peptide is used as substrate (amino acid sequence: […]NH2). Full-length PRMT5 enzyme (NCBI Reference sequence NP_006100.2) was co-expressed with Hiss-MEP50 in insect cells and purified via Nickel immobilized metal affinity and gel filtration chromatography (“the enzyme”).
The […] assay reactions are run in Greiner brand black 384-well low volume plates. All reactions contained assay buffer (phosphate buffered saline, 0.01% (v/v) Tween-20, 0.01% (w/v) albumin from chicken egg white, 1 mM dithiothreitol, 200 nM peptide substrate, 1 μM S-Adenosyl methionine, and 15 ng/reaction enzyme, with the enzyme being omitted from negative control reactions. Compounds were added in a volume of 100 nL from dilution series prepared in DMSO, positive and negative control reactions receiving the same volume DMSO without compound. The plates were sealed with adhesive seals and incubated for 4 hours at 37° C. Reaction progress was measured using the Transcreener™ EPIGEN methyltransferase assay (BellBrook Labs, Madison, Wis.) as recommended by the manufacturer. To each reaction 2 μL detection mix were added, containing coupling enzymes, fluorescence polarisation tracer, and AMP antibody. […]

[2] = tested on: symmetrical dimethylation of arginine (Histone H4R3) in cell line TE11; assay: PRMT5 Biomarker Assay (Di-Methyl Histone H4R3 ELISA); format: cell-based; conditions: Homo sapiens, TE-11; TE11 cells, 72 h incubation, EpiQuik Global Di-Methyl Histone H4R3 ELISA, corrected for total protein
Procedure: Compounds of the invention may be tested for potency to inhibit symmetrical […] of arginine in the following assay:
The cell line TE11 was seeded at a density of 12,000 cells per well in 96 well tissue culture plates in DME medium and 10% foetal bovine serum, and allowed to adhere overnight under standard culture conditions (37° C., 5% CO2). Compound dilutions prepared in DMSO were added to the medium, with negative control wells reserved for treatment with DMSO only and positive controls receiving a potent PRMT5 inhibitor. The concentration of the inhibitor had been previously determined to give maximum inhibition of the methylation. After incubation for 72 h, cells were washed twice in ice-cold PBS, lysed in lysis buffer (20 mM Tris pH 7.4, 135 mM NaCl, 1.5 mM MgCl2, 1 mM EGTA, 10% glycerol and 1% Triton-X100), centrifuged at 15,000×g and the supernatants collected for subsequent analysis. The methylation level was determined using the EpiQuik™ Global Di-Methyl Histone H4R3 Quantification ELISA Kit (Epigentek, Farmingdale, N.Y.) as per the manufacturer's recommendations; in parallel the total protein amount in the lysate was quantified using a Lowry protein assay. […]

[3] = tested on: symmetrical dimethylation of arginine (Histone H4 Arginine 3) in cell line TE11; assay: Revised PRMT5 Biomarker Assay; format: cell-based; conditions: Homo sapiens, TE-11; TE11 cells, 72 hours incubation, anti-Di-Methyl Histone H4 Arginine 3 immunofluorescence, plate-reader based
Procedure: Compounds of the invention may be tested for potency to inhibit symmetrical dimethylation of arginine in the following assay:
The cell line TE11 was seeded at a density of 6,000 cells per well in 96 well optical quality tissue culture plates in DME medium and 10% foetal bovine serum, and allowed to adhere for 5 hours under standard culture conditions (37 degree Celsius, 5% CO2). Compound dilutions prepared in DMSO were added to the medium, with negative control wells reserved for treatment with DMSO only and positive controls receiving a potent PRMT5 inhibitor compound at 1 μM concentration. After incubation for 72 hours, the cells were fixed with 3.7% formaldehyde in PBS for 30 minutes at room temperature, washed with phosphate buffer saline and blocked with Odyssey blocking buffer (LI-COR, Lincoln, Nebr.). Rabbit anti-Di-Methyl Histone H4 Arginine 3 specific antibody (Epigentek) in Odyssey blocking buffer was added and incubated for 14 hours at 4 degree Celsius. After washing, anti-rabbit secondary antibody labelled with Alexa647 dye (LifeTechnologies) and Hoechst 33342 (1 μg/mL, SigmaAldrich) were added for 1 hour incubation. Plates were washed and read on a PerkinElmer Envision 2103 in fluorescence intensity scanning mode (24 scans across the well area). The methylation level information was corrected for the number of cells as expressed by the Hoechst 33342 stain, converted to percent inhibition relative to controls on the same plate and the data fitted against a four-parameter logistic model to determine the 50% inhibitory concentration (IC50 plate-reader based). Alternatively, the plates were imaged on a PerkinElmer Phenix high content imaging platform. Using a Columbus image analysis pipeline, individual nuclei were located by Hoechst 33342 stain and the methylation level was calculated from the Alexa647-related intensity in the same area. The resulting mean intensity per cell was directly converted to percent inhibition as outlined above (IC50, imager based)).

Chain of Full-length PRMT5 enzyme co-expressed with MEP50 (O14744 whole entry): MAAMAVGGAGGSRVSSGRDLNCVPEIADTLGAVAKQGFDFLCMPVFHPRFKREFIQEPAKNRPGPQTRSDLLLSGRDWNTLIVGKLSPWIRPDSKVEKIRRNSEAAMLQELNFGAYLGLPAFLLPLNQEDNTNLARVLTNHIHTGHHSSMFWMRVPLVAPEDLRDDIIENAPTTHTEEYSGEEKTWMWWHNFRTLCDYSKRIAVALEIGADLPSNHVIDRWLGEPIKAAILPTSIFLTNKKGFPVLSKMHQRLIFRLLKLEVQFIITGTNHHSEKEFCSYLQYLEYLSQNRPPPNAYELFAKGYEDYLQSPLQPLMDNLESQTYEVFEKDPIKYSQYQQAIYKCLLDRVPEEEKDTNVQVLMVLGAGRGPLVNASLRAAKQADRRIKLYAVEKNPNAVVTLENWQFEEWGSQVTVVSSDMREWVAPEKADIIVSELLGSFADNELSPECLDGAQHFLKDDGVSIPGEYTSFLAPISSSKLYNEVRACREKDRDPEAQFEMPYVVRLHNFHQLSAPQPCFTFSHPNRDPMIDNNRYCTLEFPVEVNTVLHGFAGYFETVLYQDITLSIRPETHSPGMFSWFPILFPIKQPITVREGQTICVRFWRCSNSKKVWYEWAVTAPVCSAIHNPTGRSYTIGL
Chain of Full-length PRMT5 enzyme co-expressed with MEP50 (Q9BQA1 whole entry partner): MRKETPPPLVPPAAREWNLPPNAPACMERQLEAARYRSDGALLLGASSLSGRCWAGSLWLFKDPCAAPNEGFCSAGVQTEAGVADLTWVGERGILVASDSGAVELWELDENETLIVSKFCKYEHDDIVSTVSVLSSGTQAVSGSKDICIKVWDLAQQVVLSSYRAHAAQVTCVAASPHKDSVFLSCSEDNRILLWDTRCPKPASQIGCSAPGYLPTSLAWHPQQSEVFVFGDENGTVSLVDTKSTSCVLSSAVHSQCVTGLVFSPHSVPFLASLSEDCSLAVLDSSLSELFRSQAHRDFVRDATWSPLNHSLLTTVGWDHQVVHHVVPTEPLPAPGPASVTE

IC50 [1]: 359 nM
IC50 [2]: 40.4 nM
IC50 [3]: 0.318 µM
Compound: O=C(NCCC(O)CN1CCc2ccccc2C1)c1ccc(Cl)cc1 (stereo not drawn) [Compound 1, 4-Chloro-N-(4-(3,4-dihydroisoquinolin-2(1H)-yl)-3-hydroxybutyl)benzamide]
